# Experimental data: patent publication US8853230B2, “Inhibitors of JAK” (Portola Pharmaceuticals, Inc., priority 2009, dated 2014)
# Tests used:
# [1] = biological target: T1, JAK3 (Homo sapiens, UniProt P52333); experiment: Z'-LYTE kinase assay, JAK3 tyrosine phosphorylation activity; format: biochemical
# T1 construct: 5 μl of catalytic domain recombinant Kinase enzyme+Tyr peptide substrate (Invitrogen, Calif.); purchased Invitrogen
# Procedure, shortened: (§1)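 Z'-LYTE format using the Tyr6 peptide with recombinant catalytic-domain kinase; 1 h kinase reaction and 1 h development, both at room temperature. IC50s derived from ratiometric FRET signal.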
# [2] = biological target: T2, TYK2 (Homo sapiens, UniProt P29597); experiment: Z'-LYTE kinase assay, TYK2 tyrosine phosphorylation activity; format: biochemical
# T2 construct: 5 μl of catalytic domain recombinant Kinase enzyme+Tyr peptide substrate (Invitrogen, Calif.); purchased Invitrogen
# T2 sequence (P29597 897-1176 limits assumed): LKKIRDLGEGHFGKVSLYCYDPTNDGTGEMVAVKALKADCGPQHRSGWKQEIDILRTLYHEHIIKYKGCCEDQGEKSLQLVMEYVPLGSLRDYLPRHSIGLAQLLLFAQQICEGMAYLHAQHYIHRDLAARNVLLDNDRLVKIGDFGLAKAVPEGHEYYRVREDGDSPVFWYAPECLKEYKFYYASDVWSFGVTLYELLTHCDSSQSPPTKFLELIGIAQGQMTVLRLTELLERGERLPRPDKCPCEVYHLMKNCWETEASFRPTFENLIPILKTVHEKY
# Procedure, shortened: as §1
# [3] = biological target: T3, JAK1 (Homo sapiens, UniProt P23458); experiment: Z'-LYTE kinase assay, JAK1 tyrosine phosphorylation activity; format: biochemical; conditions: read-out: JAK 1 IC50
# T3 construct: 5 μl of catalytic domain recombinant Kinase enzyme+Tyr peptide substrate (Invitrogen, Calif.); purchased Invitrogen
# T3 sequence (P23458 875-1153 limits assumed): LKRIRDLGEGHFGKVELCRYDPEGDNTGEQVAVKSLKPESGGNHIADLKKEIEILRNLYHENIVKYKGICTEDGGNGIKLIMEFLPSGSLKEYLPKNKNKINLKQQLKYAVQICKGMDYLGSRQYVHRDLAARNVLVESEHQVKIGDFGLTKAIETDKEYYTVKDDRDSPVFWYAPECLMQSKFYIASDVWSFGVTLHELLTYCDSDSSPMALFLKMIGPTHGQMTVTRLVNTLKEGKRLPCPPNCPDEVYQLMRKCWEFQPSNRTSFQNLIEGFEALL
# Procedure, shortened: as §1
# [4] = biological target: T4, JAK2 (Homo sapiens, UniProt O60674); experiment: Z'-LYTE kinase assay, JAK2 tyrosine phosphorylation activity; format: biochemical
# T4 construct: 5 μl of catalytic domain recombinant Kinase enzyme+Tyr peptide substrate (Invitrogen, Calif.); purchased Invitrogen
# T4 sequence (O60674 849-1124 limits assumed): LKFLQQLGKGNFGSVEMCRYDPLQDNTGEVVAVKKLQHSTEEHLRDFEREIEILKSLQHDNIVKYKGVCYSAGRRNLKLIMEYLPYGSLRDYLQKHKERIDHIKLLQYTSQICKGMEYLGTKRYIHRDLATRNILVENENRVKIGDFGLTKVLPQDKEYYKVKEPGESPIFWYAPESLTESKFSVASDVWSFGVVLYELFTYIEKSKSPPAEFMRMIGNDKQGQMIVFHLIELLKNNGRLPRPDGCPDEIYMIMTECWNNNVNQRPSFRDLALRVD
# Procedure, shortened: as §1
# [5] = system: IL4-induced phospho STAT6 formation in Ramos B lymphocytes; experiment: Inhibition of IL4-induced phospho STAT6 formation in Ramos B lymphocytes (flow cytometry); format: cell-based, human; conditions: Homo sapiens; for inhibition at 0.2 µM: 200 nM compound, read-out: % Inhibition of IL-4 Induced STAT6 Phosphorylation 200 nM; for inhibition at 1 µM: 1 μM compound, read-out: % Inhibition of IL-4 Induced STAT6 Phosphorylation 1 μM
# From the text: Similar types of assays can be used to assess JAK inhibitory activity and to determine the degree of selectivity of the particular compound as compared to syk. One means of assaying for such inhibition is detection of the effect of the compounds of the present invention on the upregulation of downstream gene products. In the Ramos/IL4 assay, B-cells are stimulated with the cytokine Interleukin-4 (IL-4) leading to the activation of the JAK/Stat pathway through phosphorylation of the JAK family kinases, JAK1 and JAK3, which in turn phosphorylate and activate the transcription factor Stat-6. […] To study the effect of inhibitors (e.g., the 2,4-substituted pyrimindinediamine compounds described herein) on the JAK1 and JAK3, human Ramos B-cells are stimulated with human IL-4. 10′ post-stimulation, cells are subjected to intracellular flow cytometry to measure the extent of STAT-6 phosphorylation. 20 to 24 hours post-stimulation, cells are stained for upregulation of CD23 and analyzed using flow cytometry.
# Inhibition of IL4-induced phospho STAT6 formation was measured by pre-incubating 0.5 million Ramos B lymphocytes (ATCC) with 5 μl compound or DMSO vehicle for 1 hour at 37° C./5% CO2. Cells were activated by addition of 1 ng/ml [f]IL4 (R & D Research Systems) for 10 min at 37° C./5% CO2 and then fixed by addition of 1.6% [f]PFA (Electron Microscopy Services). Following a PBS wash step and permaeabilization with 100% methanol, cells were incubated with ALEXA-conjugated anti-phosphoSTAT6 (Y641) antibody (BD 612600). The extent of cell associated-fluorescence was determined by flow cytomentry and data expressed as mean fluorescent intensity. The extent of inhibition of the IL4-induced signal was then calculated.
# T1 sequence (P52333 822-1111 limits assumed): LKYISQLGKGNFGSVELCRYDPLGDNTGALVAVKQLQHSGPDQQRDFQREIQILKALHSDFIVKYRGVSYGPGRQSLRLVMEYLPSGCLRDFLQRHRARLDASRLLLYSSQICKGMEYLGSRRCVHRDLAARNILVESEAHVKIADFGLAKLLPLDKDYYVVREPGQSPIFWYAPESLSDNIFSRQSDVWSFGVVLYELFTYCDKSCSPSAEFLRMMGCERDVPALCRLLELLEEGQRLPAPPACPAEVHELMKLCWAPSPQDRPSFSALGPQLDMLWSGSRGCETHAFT
SMILES,IC50 [1] [nM],IC50 [2] [nM],IC50 [3] [nM],IC50 [4] [nM],inhibition at 0.2 µM [5] [%],inhibition at 1 µM [5] [%]
"NC(=O)c1cnc(Nc2ccc(Cl)c(NC(=O)N3CCCC3)c2)nc1NCc1ccccc1F [Example 170, 2-(4-chloro-3-(pyrrolidine-1-carboxamido)phenylamino)-4-(2-fluorobenzylamino)pyrimidine-5-carboxamide]",1 to 10,10 to 100,> 1000,> 1000,5.7,53.7
"COCC(=O)Nc1cc(Nc2ncc(C(N)=O)c(NCc3ccccc3)n2)ccc1Cl [Example 106, 4-(benzylamino)-2-(4-chloro-3-(2-methoxyacetamido)phenylamino)pyrimidine-5-carboxamide]",10 to 100,10 to 100,100 to 1000,100 to 1000,16.8,27.8
"C[C@@H](Nc1nc(Nc2ccc(Cl)c(NC(=O)N(C)C)c2)ncc1C(N)=O)c1ccccc1 [Example 195, (R)-2-(4-chloro-3-(3,3-dimethylureido)phenylamino)-4-(1-phenylethylamino)pyrimidine-5-carboxamide]",1 to 10,10 to 100,100 to 1000,10 to 100,3.3,27.3
"NC(=O)c1cnc(Nc2cccc(NC(=O)N3CCCCC3)c2)nc1NCc1ccccc1 [Example 218, 4-(benzylamino)-2-(3-(piperidine-1-carboxamido)phenylamino)pyrimidine-5-carboxamide]",1 to 10,1 to 10,10 to 100,10 to 100,28.7,76
"NC(=O)c1cnc(Nc2cccc(NC(=O)N3CCC3)c2)nc1NCc1ccccc1 [Example 222, 2-(3-(azetidine-1-carboxamido)phenylamino)-4-(benzylamino)pyrimidine-5-carboxamide]",1 to 10,1 to 10,10 to 100,10 to 100,47.7,86.7
"NC(=O)c1cnc(Nc2cccc(NC(=O)N3CCOCC3)c2)nc1NCc1ccccc1 [Example 217, N-(3-(4-(benzylamino)-5-carbamoylpyrimidin-2-ylamino)phenyl)morpholine-4-carboxamide]",1 to 10,1 to 10,10 to 100,10 to 100,61.3,92
"NC(=O)c1cnc(Nc2ccc(Cl)c(NC(=O)NC3CC3)c2)nc1NCc1ccccc1 [Example 154, 4-(benzylamino)-2-(4-chloro-3-(3-cyclopropylureido)phenylamino)pyrimidine-5-carboxamide]",10 to 100,100 to 1000,> 1000,> 1000,11.7,33.7
"CNC(=O)Nc1cc(Nc2ncc(C(N)=O)c(NCc3ccccc3F)n2)ccc1Cl [Example 169, 2-(4-chloro-3-(3-methylureido)phenylamino)-4-(2-fluorobenzylamino)pyrimidine-5-carboxamide]",1 to 10,10 to 100,100 to 1000,100 to 1000,3.3,16.7
"CC(=O)Nc1cc(Nc2ncc(C(N)=O)c(N[C@H](C)c3ccccc3)n2)ccc1Cl [Example 108, (R)-2-(3-acetamido-4-chlorophenylamino)-4-(1-phenylethylamino)pyrimidine-5-carboxamide]",1 to 10,10 to 100,100 to 1000,10 to 100,21.3,70
"CC(=O)Nc1cccc(Nc2ncc(C(N)=O)c(NCC3CCCN(S(C)(=O)=O)C3)n2)c1 (centres unmarked) [Example 120, 2-(3-acetamidophenylamino)-4-((1-(methylsulfonyl)piperidin-3-yl)methylamino)pyrimidine-5-carboxamide]",1 to 10,10 to 100,10 to 100,10 to 100,–,–
"CNC(=O)Nc1cc(Nc2ncc(C(N)=O)c(NCc3ccccc3)n2)ccc1F [Example 158, 4-(benzylamino)-2-(4-fluoro-3-(3-methylureido)phenylamino)pyrimidine-5-carboxamide]",1 to 10,10 to 100,> 1000,10 to 100,–,–

# Continued, in another order:
IC50 [1] [nM],IC50 [2] [nM],IC50 [3] [nM],IC50 [4] [nM],SMILES,inhibition at 0.2 µM [5] [%],inhibition at 1 µM [5] [%]
1 to 10,1 to 10,10 to 100,10 to 100,"CC(=O)Nc1cc(Nc2ncc(C(N)=O)c(NCc3ccccc3)n2)ccc1F [Example 156, 2-(3-acetamido-4-fluorophenylamino)-4-(benzylamino)pyrimidine-5-carboxamide]",28,71.3
1 to 10,1 to 10,10 to 100,10 to 100,"CC(=O)Nc1cc(Nc2ncc(C(N)=O)c(NCc3ccccc3)n2)ccc1C [Example 155, 2-(3-acetamido-4-methylphenylamino)-4-(benzylamino)pyrimidine-5-carboxamide]",71.7,88
1 to 10,1 to 10,10 to 100,10 to 100,"COC[C@@H]1CCCN1C(=O)Nc1cccc(Nc2ncc(C(N)=O)c(NCc3ccccc3)n2)c1 [Example 140, (S)-4-(benzylamino)-2-(3-(2-(methoxymethyl)pyrrolidine-1-carboxamido)phenylamino)pyrimidine-5-carboxamide]",21.7,69
1 to 10,10 to 100,100 to 1000,100 to 1000,"NC(=O)c1cnc(Nc2ccc(Cl)c(NC(=O)N3CCC3)c2)nc1NCc1ccccc1 [Example 233, 2-(3-(azetidine-1-carboxamido)-4-chlorophenylamino)-4-(benzylamino)pyrimidine-5-carboxamide]",7,37.7
1 to 10,10 to 100,100 to 1000,100 to 1000,"CN(C)C(=O)Nc1cc(Nc2ncc(C(N)=O)c(NCc3ccccc3)n2)ccc1Cl [Example 196, 4-(benzylamino)-2-(4-chloro-3-(3,3-dimethylureido)phenylamino)pyrimidine-5-carboxamide]",8.3,65
1 to 10,1 to 10,10 to 100,10 to 100,"CCCCNc1nc(Nc2cccc(NC(=O)N3CCCC3)c2)ncc1C(N)=O [Example 135, 4-(butylamino)-2-(3-(pyrrolidine-1-carboxamido)phenylamino)pyrimidine-5-carboxamide]",42.3,89.7
10 to 100,> 1000,> 1000,100 to 1000,"CNC(=O)Nc1cc(Nc2ncc(C(N)=O)c(NCc3cccc(Cl)c3)n2)ccc1Cl [Example 165, 2-(4-chloro-3-(3-methylureido)phenylamino)-4-(3-chlorobenzylamino)pyrimidine-5-carboxamide]",57.3,89.7
10 to 100,100 to 1000,100 to 1000,100 to 1000,"C[C@@H](Nc1nc(Nc2ccc(Cl)c(NC(=O)C3CC3)c2)ncc1C(N)=O)c1ccccc1 [Example 110, (R)-2-(4-chloro-3-(cyclopropanecarboxamido)phenylamino)-4-(1-phenylethylamino)pyrimidine-5-carboxamide]",48.3,97.7
1 to 10,1 to 10,10 to 100,10 to 100,"C[C@@H]1CCCN1C(=O)Nc1cccc(Nc2ncc(C(N)=O)c(NCc3ccccc3)n2)c1 [Example 146, (R)-4-(benzylamino)-2-(3-(2-methylpyrrolidine-1-carboxamido)phenylamino)pyrimidine-5-carboxamide]",40.7,82
